Laboratory results as given in US8735414B2 (priority 2009, dated 2014).
pIC50: −log10 of the molar value.

Key:
[1] = system: bicistronic HCV replicon (replicon RNA, GenBank Accession No. AJ242654); assay: HCV Replicon Assay; format: cell-based; conditions: Hepatitis C virus, 72 h, read-out: Replicon IC50

## N#Cc1c(-c2ccc(S(=O)(=O)NC(CF)CF)cn2)n(C2CCCC2)c2c(F)cccc12 [compound 87, 6-(3-cyano-1-cyclopentyl-7-fluoro-1H-indol-2-yl)-N-(1,3-difluoropropan-2-yl)pyridine-3-sulfonamide]
other
  melting point: 128 to 129 °C
[1]
  pIC50: > 6.30

## CC(C)(C)S(=O)(=O)Nc1ccc(-c2c(C(N)=O)c3cc(F)c(C4CC4)cc3n2-c2ccccc2)cn1 [compound 1100, 2-{6-[(tert-butylsulfonyl)amino]pyridin-3-yl}-6-cyclopropyl-5-fluoro-1-phenyl-1H-indole-3-carboxamide]
other
  melting point: 272 to 274 °C
[1]
  pIC50: > 6.30

## C[C@H](NS(=O)(=O)c1ccc(-c2c(C(=O)O)c3cc(F)ccc3n2C2CCCCC2)nc1)C(F)(F)F [compound 741, 1-cyclohexyl-5-fluoro-2-(5-{[(2S)-1,1,1-trifluoropropan-2-yl]sulfamoyl}pyridin-2-yl)-1H-indole-3-carboxylic acid]
other
  melting point: 216 to 220 °C
[1]
  pIC50: 5.70 to 6.30

## Cc1ccc2c(C#N)c(-c3ccc(S(=O)(=O)NC(C)C)cn3)n([C@@H]3CCOC3)c2c1 [compound 55, 6-{3-cyano-6-methyl-1-[(3R)-tetrahydrofuran-3-yl]-1H-indol-2-yl}-N-(propan-2-yl)pyridine-3-sulfonamide]
other
  melting point: 164 to 167 °C
[1]
  pIC50: > 6.30

## Cc1ccc2c(c1)c(C#N)c(-c1ncc(S(=O)(=O)N[C@@H](C)C3CC3)cn1)n2C(C)C [compound 563, 2-[3-cyano-5-methyl-1-(propan-2-yl)-1H-indol-2-yl]-N-[(1S)-1-cyclopropylethyl]pyrimidine-5-sulfonamide]
other
  melting point: 171 to 174 °C
[1]
  pIC50: 5.70 to 6.30

## Cc1cc2c(cc1F)c(C#N)c(-c1ccc(S(=O)(=O)N[C@@H](C)C(F)(F)F)cn1)n2-c1cscn1 [compound 960, 6-[3-cyano-5-fluoro-6-methyl-1-(1,3-thiazol-4-yl)-1H-indol-2-yl]-N-[(2S)-1,1,1-trifluoropropan-2-yl]pyridine-3-sulfonamide]
other
  melting point: 184 to 189 °C
[1]
  pIC50: > 6.30

## Cc1cc2c(cc1F)c(C(N)=O)c(-c1ccc(S(=O)(=O)N[C@H](C)C(F)(F)F)cn1)n2C1CCCCC1 [compound 716, 1-cyclohexyl-5-fluoro-6-methyl-2-(5-{[(2R)-1,1,1-trifluoropropan-2-yl]sulfamoyl}pyridin-2-yl)-1H-indole-3-carboxamide]
other
  melting point: 272 to 276 °C
[1]
  pIC50: > 6.30

## CCCn1c(-c2ccc(S(=O)(=O)N[C@@H](C)C(F)(F)F)cn2)c(C#N)c2cc(F)c(OC(F)F)cc21 [compound 786, 6-[3-cyano-6-(difluoromethoxy)-5-fluoro-1-propyl-1H-indol-2-yl]-N-[(2S)-1,1,1-trifluoropropan-2-yl]pyridine-3-sulfonamide]
other
  melting point: 162 to 168 °C
[1]
  pIC50: > 6.30

## Cc1cc2c(C#N)c(-c3ccc(S(=O)(=O)NC(CF)CF)cn3)n(C3CCC3)c2cc1F [compound 493, 6-(3-cyano-1-cyclobutyl-6-fluoro-5-methyl-1H-indol-2-yl)-N-(1,3-difluoropropan-2-yl)pyridine-3-sulfonamide]
other
  melting point: 209 to 213 °C
[1]
  pIC50: > 6.30

## Cc1ccc2c(C#N)c(-c3ncc(S(=O)(=O)NC(C)C)cn3)n(C3CCCC3)c2c1 [compound 74, 2-(3-cyano-1-cyclopentyl-6-methyl-1H-indol-2-yl)-N-(propan-2-yl)pyrimidine-5-sulfonamide]
other
  melting point: 213 to 214 °C
[1]
  pIC50: > 6.30

## N#Cc1c(-c2ccc(S(=O)(=O)NC(CF)CF)cn2)n(CC2CC2)c2cc(Cl)c(F)cc12 [compound 110, 6-[6-chloro-3-cyano-1-(cyclopropylmethyl)-5-fluoro-1H-indol-2-yl]-N-(1,3-difluoropropan-2-yl)pyridine-3-sulfonamide]
other
  melting point: 202 to 204 °C
[1]
  pIC50: > 6.30

## C[C@H](NS(=O)(=O)c1cnc(-c2c(C#N)c3ccc(Cl)cc3n2-c2ccccn2)nc1)C(F)(F)F [compound 449]
other
  melting point: 163 to 166 °C
[1]
  pIC50: > 6.30

## Cc1ccc2c(c1)c(C#N)c(-c1ncc(S(=O)(=O)NC(CF)CF)cn1)n2C1CCCCC1 [compound 198, 2-(3-cyano-1-cyclohexyl-5-methyl-1H-indol-2-yl)-N-(1,3-difluoropropan-2-yl)pyrimidine-5-sulfonamide]
other
  melting point: 211 to 215 °C
[1]
  pIC50: 5.70 to 6.30

## CCc1cc2c(cc1F)c(C#N)c(-c1ccc(S(=O)(=O)N[C@@H](C)C(F)(F)F)cn1)n2-c1cccc(F)n1 [compound 930, 6-[3-cyano-6-ethyl-5-fluoro-1-(6-fluoropyridin-2-yl)-1H-indol-2-yl]-N-[(2S)-1,1,1-trifluoropropan-2-yl]pyridine-3-sulfonamide]
other
  melting point: 205 to 211 °C
[1]
  pIC50: > 6.30

## CCc1cc2c(cc1F)c(C#N)c(-c1cc(C)c(S(=O)(=O)N[C@@H](C)C(F)(F)F)cn1)n2-c1ncccn1 [compound 851, 6-[3-cyano-6-ethyl-5-fluoro-1-(pyrimidin-2-yl)-1H-indol-2-yl]-4-methyl-N-[(2S)-1,1,1-trifluoropropan-2-yl]pyridine-3-sulfonamide]
other
  melting point: 231 to 236 °C
[1]
  pIC50: > 6.30

## C[C@H](NS(=O)(=O)c1cnc(-c2c(C#N)c3ccc(F)cc3n2C2CCC2)nc1)C1CC1 [compound 496, 2-(3-cyano-1-cyclobutyl-6-fluoro-1H-indol-2-yl)-N-[(1S)-1-cyclopropylethyl]pyrimidine-5-sulfonamide]
other
  melting point: 207 to 208 °C
[1]
  pIC50: 5.70 to 6.30

## CCCn1c(-c2ccc(S(=O)(=O)NC(C)C)cn2)c(C#N)c2ccc(OC(F)F)cc21 [compound 3, 6-[3-cyano-6-(difluoromethoxy)-1-propyl-1H-indol-2-yl]-N-(propan-2-yl)pyridine-3-sulfonamide]
other
  melting point: 166 to 170 °C

## CC(C)NS(=O)(=O)c1ccc(-c2c(C#N)c3ccc(OC(F)F)cc3n2CC2CC2)nc1 [compound 13, 6-[3-cyano-1-(cyclopropylmethyl)-6-(difluoromethoxy)-1H-indol-2-yl]-N-(propan-2-yl)pyridine-3-sulfonamide]
other
  melting point: 154 to 156 °C

## N#Cc1c(-c2ccc(S(=O)(=O)NC(CF)CF)cn2)n(C2CCC2)c2cc(C3CC3)ccc12 [compound 35, 6-(3-cyano-1-cyclobutyl-6-cyclopropyl-1H-indol-2-yl)-N-(1,3-difluoropropan-2-yl)pyridine-3-sulfonamide]
other
  melting point: 175 to 178 °C

## C[C@H](NS(=O)(=O)c1ccc(-c2c(C#N)c3ccc(OC(F)F)cc3n2C2CCC2)nc1)C(F)(F)F [compound 300, 6-[3-cyano-1-cyclobutyl-6-(difluoromethoxy)-1H-indol-2-yl]-N-[(2S)-1,1,1-trifluoropropan-2-yl]pyridine-3-sulfonamide]
other
  melting point: 159 to 162 °C

## N#Cc1c(-c2ccc(S(=O)(=O)NC3(C(F)(F)F)CCC3)cn2)n(C2CCC2)c2cc(OC(F)F)ccc12 [compound 106, 6-[3-cyano-1-cyclobutyl-6-(difluoromethoxy)-1H-indol-2-yl]-N-[1-(trifluoromethyl)cyclobutyl]pyridine-3-sulfonamide]
other
  melting point: 162 to 168 °C

## CC(C)NS(=O)(=O)c1ccc(-c2c(C#N)c3ccc(OC(F)F)cc3n2C(C)C)nc1 [compound 1, 6-[3-cyano-6-(difluoromethoxy)-1-(propan-2-yl)-1H-indol-2-yl]-N-(propan-2-yl)pyridine-3-sulfonamide]
other
  melting point: 157 to 159 °C

## CC(C)NS(=O)(=O)c1ccc(-c2c(C#N)c3cc(C4CC4)ccc3n2C2CCC2)nc1 [compound 8, 6-(3-cyano-1-cyclobutyl-5-cyclopropyl-1H-indol-2-yl)-N-(propan-2-yl)pyridine-3-sulfonamide]
other
  melting point: 172 to 174 °C

## N#Cc1c(-c2ccc(S(=O)(=O)NC(CF)CF)cn2)n(C2CCC2)c2cc(OC(F)F)ccc12 [compound 31, 6-[3-cyano-1-cyclobutyl-6-(difluoromethoxy)-1H-indol-2-yl]-N-(1,3-difluoropropan-2-yl)pyridine-3-sulfonamide]
other
  melting point: 159 to 161 °C

## C[C@H](NS(=O)(=O)c1ccc(-c2c(C(N)=O)c3cc(F)c(C4CC4)cc3n2C2CCCC2)nc1)C(F)(F)F [compound 842, 1-cyclopentyl-6-cyclopropyl-5-fluoro-2-(5-{[(2S)-1,1,1-trifluoropropan-2-yl]sulfamoyl}pyridin-2-yl)-1H-indole-3-carboxamide]
other
  melting point: 255 to 257 °C

## C[C@H](NS(=O)(=O)c1ccc(-c2c(C#N)c3ccc(C4CC4)cc3n2C2CCC2)nc1)C(F)(F)F [compound 369, 6-(3-cyano-1-cyclobutyl-6-cyclopropyl-1H-indol-2-yl)-N-[(2S)-1,1,1-trifluoropropan-2-yl]pyridine-3-sulfonamide]
other
  melting point: 191 to 197 °C

## CC(C)(C)NS(=O)(=O)c1ccc(-c2c(C#N)c3ccc(OC(F)F)cc3n2C2CCC2)nc1 [compound 543, N-tert-butyl-6-[3-cyano-1-cyclobutyl-6-(difluoromethoxy)-1H-indol-2-yl]pyridine-3-sulfonamide]
other
  melting point: 178 to 180 °C

## N#Cc1c(-c2ccc(S(N)(=O)=O)cn2)n(C2CCC2)c2cc(OC(F)F)ccc12 [compound 552, 6-[3-cyano-1-cyclobutyl-6-(difluoromethoxy)-1H-indol-2-yl]pyridine-3-sulfonamide]
other
  melting point: 204 to 205 °C

## C[C@H](NS(=O)(=O)c1ccc(-c2c(C#N)c3ccc(OC(F)F)cc3n2C2CCC2)nc1)C1CC1 [compound 151, 6-[3-cyano-1-cyclobutyl-6-(difluoromethoxy)-1H-indol-2-yl]-N-[(1S)-1-cyclopropylethyl]pyridine-3-sulfonamide]
other
  melting point: 163 to 168 °C

## CC(C)NS(=O)(=O)c1ccc(-c2c(C#N)c3ccc(SC(C)C)cc3n2C2CCC2)nc1 [compound 16, 6-[3-cyano-1-cyclobutyl-6-(propan-2-ylsulfanyl)-1H-indol-2-yl]-N-(propan-2-yl)pyridine-3-sulfonamide]
other
  melting point: 129 to 131 °C

## CC(C)NS(=O)(=O)c1ccc(-c2c(C#N)c3ccc(OC(F)F)cc3n2C2CCC2)nc1 [compound 51, 6-[3-cyano-1-cyclobutyl-6-(difluoromethoxy)-1H-indol-2-yl]-N-(propan-2-yl)pyridine-3-sulfonamide]
other
  melting point: 158 to 159 °C
